Assay results taken from ChEMBL document CHEMBL4507265 (2021).

Assays:
[1] = molecular target: Activin receptor type-2B (Homo sapiens) (UniProt Q13705); conditions: Compound concentration 1000.0 nM
[2] = molecular target: Aurora kinase B (Homo sapiens) (UniProt Q96GD4); conditions: Compound concentration 1000.0 nM
[3] = molecular target: Aurora kinase C (Homo sapiens) (UniProt Q9UQB9); conditions: Compound concentration 1000.0 nM
[4] = molecular target: Bone morphogenetic protein receptor type-2 (Homo sapiens) (UniProt Q13873); conditions: Compound concentration 1000.0 nM
[5] = molecular target: Serine/threonine-protein kinase BRSK2 (Homo sapiens) (UniProt Q8IWQ3); conditions: Compound concentration 1000.0 nM
[6] = molecular target: Calcium/calmodulin-dependent protein kinase type IV (Homo sapiens) (UniProt Q16566); conditions: Compound concentration 1000.0 nM
[7] = molecular target: Calcium/calmodulin-dependent protein kinase kinase 2 (Homo sapiens) (UniProt Q96RR4); conditions: Compound concentration 1000.0 nM
[8] = molecular target: Cyclin-dependent kinase 4 (Homo sapiens) (UniProt P11802); conditions: Compound concentration 1000.0 nM
Cyclin-dependent kinase 4 (Homo sapiens), sequence (P11802 whole entry): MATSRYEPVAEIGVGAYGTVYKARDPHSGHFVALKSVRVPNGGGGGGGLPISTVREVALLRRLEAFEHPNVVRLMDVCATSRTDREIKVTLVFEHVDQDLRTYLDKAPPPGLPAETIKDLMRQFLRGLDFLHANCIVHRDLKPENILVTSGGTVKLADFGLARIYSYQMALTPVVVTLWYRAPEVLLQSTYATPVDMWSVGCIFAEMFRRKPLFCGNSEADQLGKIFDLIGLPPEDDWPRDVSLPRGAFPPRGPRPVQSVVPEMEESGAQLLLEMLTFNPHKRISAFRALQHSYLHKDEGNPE

[9] = molecular target: Cyclin-dependent kinase 5 (Homo sapiens) (UniProt Q00535); conditions: Compound concentration 1000.0 nM
[10] = molecular target: Cyclin-dependent kinase 9 (Homo sapiens) (UniProt P50750); conditions: Compound concentration 1000.0 nM
Cyclin-dependent kinase 9 (Homo sapiens), sequence (P50750 whole entry): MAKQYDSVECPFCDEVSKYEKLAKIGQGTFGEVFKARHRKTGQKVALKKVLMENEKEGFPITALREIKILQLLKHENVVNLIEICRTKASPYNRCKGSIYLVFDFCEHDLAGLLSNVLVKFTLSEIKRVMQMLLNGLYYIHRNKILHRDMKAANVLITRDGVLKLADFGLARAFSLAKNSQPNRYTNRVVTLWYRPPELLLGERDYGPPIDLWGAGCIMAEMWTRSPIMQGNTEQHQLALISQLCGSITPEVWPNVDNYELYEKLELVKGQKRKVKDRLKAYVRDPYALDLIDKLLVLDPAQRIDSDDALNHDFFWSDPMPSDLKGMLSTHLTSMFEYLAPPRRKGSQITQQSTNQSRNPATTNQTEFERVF

[11] = molecular target: Serine/threonine-protein kinase Chk2 (Homo sapiens) (UniProt O96017); conditions: Compound concentration 1000.0 nM
[12] = molecular target: Dual specificity protein kinase CLK1 (Homo sapiens) (UniProt P49759); conditions: Compound concentration 1000.0 nM
[13] = molecular target: Tyrosine-protein kinase CSK (Homo sapiens) (UniProt P41240); conditions: Compound concentration 1000.0 nM
[14] = molecular target: Casein kinase I isoform alpha-like (Homo sapiens) (UniProt Q8N752); conditions: Compound concentration 1000.0 nM
[15] = molecular target: Casein kinase I isoform gamma-1 (Homo sapiens) (UniProt Q9HCP0); conditions: Compound concentration 1000.0 nM
[16] = molecular target: Death-associated protein kinase 3 (Homo sapiens) (UniProt O43293); conditions: Compound concentration 1000.0 nM
[17] = molecular target: Epithelial discoidin domain-containing receptor 1 (Homo sapiens) (UniProt Q08345); conditions: Compound concentration 1000.0 nM
[18] = molecular target: Epidermal growth factor receptor (Homo sapiens) (UniProt P00533); conditions: Compound concentration 1000.0 nM
[19] = test system: Epidermal growth factor receptor (Homo sapiens), P00533 [G719S]; conditions: Compound concentration 1000.0 nM
[20] = test system: Epidermal growth factor receptor (Homo sapiens), P00533 [L858R]; conditions: Compound concentration 1000.0 nM
[21] = molecular target: Eukaryotic translation initiation factor 2-alpha kinase 1 (Homo sapiens) (UniProt Q9BQI3); conditions: Compound concentration 1000.0 nM
[22] = molecular target: Ephrin type-A receptor 5 (Homo sapiens) (UniProt P54756); conditions: Compound concentration 1000.0 nM
Ephrin type-A receptor 5 (Homo sapiens), sequence (P54756 whole entry): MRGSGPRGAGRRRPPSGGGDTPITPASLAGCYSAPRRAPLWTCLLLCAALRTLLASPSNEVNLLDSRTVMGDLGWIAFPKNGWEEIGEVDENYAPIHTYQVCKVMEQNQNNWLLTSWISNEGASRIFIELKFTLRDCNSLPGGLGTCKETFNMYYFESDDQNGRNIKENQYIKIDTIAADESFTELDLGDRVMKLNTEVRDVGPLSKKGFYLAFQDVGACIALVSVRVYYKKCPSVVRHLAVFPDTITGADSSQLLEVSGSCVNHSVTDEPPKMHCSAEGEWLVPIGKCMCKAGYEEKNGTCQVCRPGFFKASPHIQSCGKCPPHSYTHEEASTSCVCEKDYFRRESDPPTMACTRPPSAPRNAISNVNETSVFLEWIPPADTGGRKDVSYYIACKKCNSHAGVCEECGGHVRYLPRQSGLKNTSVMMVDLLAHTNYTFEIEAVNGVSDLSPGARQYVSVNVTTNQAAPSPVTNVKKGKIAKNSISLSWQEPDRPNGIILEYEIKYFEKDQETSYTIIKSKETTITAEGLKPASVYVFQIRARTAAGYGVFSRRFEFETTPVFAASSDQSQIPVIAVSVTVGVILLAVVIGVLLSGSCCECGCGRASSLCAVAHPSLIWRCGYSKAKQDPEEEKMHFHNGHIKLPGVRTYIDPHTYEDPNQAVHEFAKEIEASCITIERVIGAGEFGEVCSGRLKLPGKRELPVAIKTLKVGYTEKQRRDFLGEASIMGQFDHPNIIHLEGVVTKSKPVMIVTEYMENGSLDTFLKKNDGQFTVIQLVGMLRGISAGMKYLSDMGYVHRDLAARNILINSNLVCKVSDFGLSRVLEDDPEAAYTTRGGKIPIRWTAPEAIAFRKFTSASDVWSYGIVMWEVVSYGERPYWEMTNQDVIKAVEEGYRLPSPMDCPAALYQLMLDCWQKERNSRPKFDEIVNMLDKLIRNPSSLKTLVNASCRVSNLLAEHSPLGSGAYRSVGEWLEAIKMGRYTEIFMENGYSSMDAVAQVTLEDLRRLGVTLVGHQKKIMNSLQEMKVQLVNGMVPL

[23] = molecular target: Receptor-type tyrosine-protein kinase FLT3 (Homo sapiens) (UniProt P36888); conditions: Compound concentration 1000.0 nM
[24] = molecular target: Homeodomain-interacting protein kinase 4 (Homo sapiens) (UniProt Q8NE63); conditions: Compound concentration 1000.0 nM
Homeodomain-interacting protein kinase 4 (Homo sapiens), sequence (Q8NE63 whole entry): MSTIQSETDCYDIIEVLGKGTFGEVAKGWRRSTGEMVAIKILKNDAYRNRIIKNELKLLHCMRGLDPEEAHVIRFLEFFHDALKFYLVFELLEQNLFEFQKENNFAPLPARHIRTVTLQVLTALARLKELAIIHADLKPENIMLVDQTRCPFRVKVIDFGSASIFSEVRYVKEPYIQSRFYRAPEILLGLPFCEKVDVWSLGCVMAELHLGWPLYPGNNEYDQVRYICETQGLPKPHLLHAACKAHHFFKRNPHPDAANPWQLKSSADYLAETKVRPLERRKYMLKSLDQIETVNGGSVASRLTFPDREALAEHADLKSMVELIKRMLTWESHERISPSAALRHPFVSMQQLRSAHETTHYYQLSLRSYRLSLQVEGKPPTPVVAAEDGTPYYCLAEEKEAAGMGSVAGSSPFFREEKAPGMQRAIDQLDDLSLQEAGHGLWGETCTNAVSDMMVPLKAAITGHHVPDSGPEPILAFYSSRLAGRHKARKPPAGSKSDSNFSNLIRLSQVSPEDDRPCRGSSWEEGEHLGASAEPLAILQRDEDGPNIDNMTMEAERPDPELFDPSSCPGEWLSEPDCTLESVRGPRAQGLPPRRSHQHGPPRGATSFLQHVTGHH

[25] = molecular target: Interleukin-1 receptor-associated kinase 4 (Homo sapiens) (UniProt Q9NWZ3); conditions: Compound concentration 1000.0 nM
[26] = molecular target: Tyrosine-protein kinase JAK3 (Homo sapiens) (UniProt P52333); conditions: Compound concentration 1000.0 nM
[27] = test system: Mast/stem cell growth factor receptor Kit (Homo sapiens), P10721 [V559D]; conditions: Compound concentration 1000.0 nM
[28] = molecular target: Microtubule-associated serine/threonine-protein kinase 1 (Homo sapiens) (UniProt Q9Y2H9); conditions: Compound concentration 1000.0 nM
[29] = molecular target: Dual specificity mitogen-activated protein kinase kinase 6 (Homo sapiens) (UniProt P52564); conditions: Compound concentration 1000.0 nM
[30] = molecular target: Serine/threonine-protein kinase NLK (Homo sapiens) (UniProt Q9UBE8); conditions: Compound concentration 1000.0 nM
[31] = molecular target: Mitogen-activated protein kinase 13 (Homo sapiens) (UniProt O15264); conditions: Compound concentration 1000.0 nM
[32] = molecular target: Platelet-derived growth factor receptor alpha (Homo sapiens) (UniProt P16234); conditions: Compound concentration 1000.0 nM
[33] = molecular target: 1-phosphatidylinositol 3-phosphate 5-kinase (Homo sapiens) (UniProt Q9Y2I7); conditions: Compound concentration 1000.0 nM
[34] = molecular target: Serine/threonine-protein kinase PLK1 (Homo sapiens) (UniProt P53350); conditions: Compound concentration 1000.0 nM
[35] = molecular target: Serine/threonine-protein kinase D2 (Homo sapiens) (UniProt Q9BZL6); conditions: Compound concentration 1000.0 nM
Serine/threonine-protein kinase D2 (Homo sapiens), sequence (Q9BZL6 whole entry): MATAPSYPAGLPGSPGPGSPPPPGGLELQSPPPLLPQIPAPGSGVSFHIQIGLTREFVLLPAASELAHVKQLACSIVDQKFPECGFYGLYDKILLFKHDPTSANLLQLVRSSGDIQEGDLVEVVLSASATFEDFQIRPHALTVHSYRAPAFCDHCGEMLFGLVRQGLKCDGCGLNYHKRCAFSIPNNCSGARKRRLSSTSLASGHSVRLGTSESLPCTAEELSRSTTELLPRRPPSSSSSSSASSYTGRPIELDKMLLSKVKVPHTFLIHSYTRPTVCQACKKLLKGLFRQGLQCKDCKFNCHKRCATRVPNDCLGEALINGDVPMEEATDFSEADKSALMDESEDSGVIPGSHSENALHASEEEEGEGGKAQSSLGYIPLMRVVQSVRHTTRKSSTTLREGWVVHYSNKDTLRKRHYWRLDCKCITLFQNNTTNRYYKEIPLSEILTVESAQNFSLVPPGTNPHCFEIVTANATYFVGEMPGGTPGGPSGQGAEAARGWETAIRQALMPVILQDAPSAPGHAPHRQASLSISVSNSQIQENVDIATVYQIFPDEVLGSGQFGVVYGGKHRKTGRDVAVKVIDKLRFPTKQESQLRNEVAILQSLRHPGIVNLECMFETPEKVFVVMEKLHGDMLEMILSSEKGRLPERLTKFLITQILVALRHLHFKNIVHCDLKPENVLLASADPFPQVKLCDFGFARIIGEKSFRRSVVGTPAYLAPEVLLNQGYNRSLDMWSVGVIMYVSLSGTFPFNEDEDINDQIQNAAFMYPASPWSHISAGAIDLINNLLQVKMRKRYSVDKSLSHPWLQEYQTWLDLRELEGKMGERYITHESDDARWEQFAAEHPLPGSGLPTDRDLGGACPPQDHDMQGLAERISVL

[36] = molecular target: Ribosomal protein S6 kinase alpha-4 (Homo sapiens) (UniProt O75676); conditions: Compound concentration 1000.0 nM
Ribosomal protein S6 kinase alpha-4 (Homo sapiens), sequence (O75676 whole entry, looked up): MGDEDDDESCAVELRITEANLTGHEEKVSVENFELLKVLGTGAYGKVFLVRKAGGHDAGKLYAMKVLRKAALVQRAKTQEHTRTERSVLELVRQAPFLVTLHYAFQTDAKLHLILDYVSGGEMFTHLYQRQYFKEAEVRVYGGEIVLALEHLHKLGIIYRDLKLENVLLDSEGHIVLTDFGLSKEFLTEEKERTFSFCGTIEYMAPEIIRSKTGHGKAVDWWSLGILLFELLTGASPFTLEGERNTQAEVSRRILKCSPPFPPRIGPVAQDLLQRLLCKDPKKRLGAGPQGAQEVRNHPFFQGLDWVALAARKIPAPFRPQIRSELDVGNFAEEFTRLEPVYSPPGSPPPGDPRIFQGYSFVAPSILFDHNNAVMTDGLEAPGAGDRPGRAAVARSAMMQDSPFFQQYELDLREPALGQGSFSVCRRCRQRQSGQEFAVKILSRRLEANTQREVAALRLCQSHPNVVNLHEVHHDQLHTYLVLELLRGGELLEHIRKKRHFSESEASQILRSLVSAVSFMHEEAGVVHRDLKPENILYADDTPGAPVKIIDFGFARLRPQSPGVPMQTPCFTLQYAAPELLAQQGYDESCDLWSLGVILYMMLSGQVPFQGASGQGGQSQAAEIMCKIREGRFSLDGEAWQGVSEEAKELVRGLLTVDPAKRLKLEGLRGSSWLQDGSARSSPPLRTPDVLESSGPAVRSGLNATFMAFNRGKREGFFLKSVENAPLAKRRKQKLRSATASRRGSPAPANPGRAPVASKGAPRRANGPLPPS

[37] = molecular target: Ribosomal protein S6 kinase alpha-3 (Homo sapiens) (UniProt P51812); conditions: Compound concentration 1000.0 nM
[38] = molecular target: STE20-like serine/threonine-protein kinase (Homo sapiens) (UniProt Q9H2G2); conditions: Compound concentration 1000.0 nM
[39] = molecular target: SRSF protein kinase 1 (Homo sapiens) (UniProt Q96SB4); conditions: Compound concentration 1000.0 nM
SRSF protein kinase 1 (Homo sapiens), sequence (Q96SB4 whole entry): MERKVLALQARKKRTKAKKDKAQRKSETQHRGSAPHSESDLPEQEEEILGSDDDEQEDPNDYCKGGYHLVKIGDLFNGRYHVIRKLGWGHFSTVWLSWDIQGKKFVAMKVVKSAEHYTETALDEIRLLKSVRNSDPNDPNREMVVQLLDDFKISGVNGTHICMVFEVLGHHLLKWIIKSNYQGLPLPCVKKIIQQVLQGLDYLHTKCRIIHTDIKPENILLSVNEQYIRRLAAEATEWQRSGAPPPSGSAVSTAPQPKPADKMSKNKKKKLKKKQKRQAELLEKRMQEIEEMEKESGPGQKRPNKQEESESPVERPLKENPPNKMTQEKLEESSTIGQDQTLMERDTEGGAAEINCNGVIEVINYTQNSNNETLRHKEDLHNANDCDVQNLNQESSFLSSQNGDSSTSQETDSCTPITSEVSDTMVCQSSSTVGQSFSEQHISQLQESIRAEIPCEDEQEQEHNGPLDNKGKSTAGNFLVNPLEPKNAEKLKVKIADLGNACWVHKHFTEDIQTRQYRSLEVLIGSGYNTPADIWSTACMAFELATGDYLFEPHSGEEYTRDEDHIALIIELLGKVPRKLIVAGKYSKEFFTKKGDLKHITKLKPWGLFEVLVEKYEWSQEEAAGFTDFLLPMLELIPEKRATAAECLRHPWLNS

[40] = molecular target: Serine/threonine-protein kinase 36 (Homo sapiens) (UniProt Q9NRP7); conditions: Compound concentration 1000.0 nM
[41] = molecular target: Non-receptor tyrosine-protein kinase TNK1 (Homo sapiens) (UniProt Q13470); conditions: Compound concentration 1000.0 nM
[42] = molecular target: Serine/threonine-protein kinase 32A (Homo sapiens) (UniProt Q8WU08); conditions: Compound concentration 1000.0 nM
[43] = molecular target: Mitogen-activated protein kinase kinase kinase 20 (Homo sapiens) (UniProt Q9NYL2); conditions: Compound concentration 1000.0 nM
[44] = molecular target: 5-hydroxytryptamine receptor 2B (Homo sapiens) (UniProt P41595); conditions: Compound concentration 10.0 uM
[45] = molecular target: Kappa-type opioid receptor (Homo sapiens) (UniProt P41145); conditions: Compound concentration 10.0 uM
[46] = molecular target: Beta-3 adrenergic receptor (Homo sapiens) (UniProt P13945); conditions: Compound concentration 10.0 uM

Aurora kinase C (Homo sapiens), sequence (Q9UQB9 whole entry): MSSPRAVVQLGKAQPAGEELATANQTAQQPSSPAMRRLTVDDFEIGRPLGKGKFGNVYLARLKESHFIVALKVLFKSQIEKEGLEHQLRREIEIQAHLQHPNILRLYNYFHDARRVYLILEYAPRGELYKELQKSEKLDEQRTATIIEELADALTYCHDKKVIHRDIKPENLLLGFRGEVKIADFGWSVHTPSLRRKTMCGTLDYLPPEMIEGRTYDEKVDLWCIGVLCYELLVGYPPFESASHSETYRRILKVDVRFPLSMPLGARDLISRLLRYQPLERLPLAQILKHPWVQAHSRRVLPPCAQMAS

In the case of `NS(=O)(=O)c1cc(NC(=O)C2(c3ccccc3Cl)CC2)ccc1Oc1cccc(Cl)c1` [BAY-207], the residual activity [1] is reported as 90%, the residual activity [2] is reported as 84% and the residual activity [3] is reported as 63%. For the same compound, the residual activity [4] was 100%, the residual activity [5] was 87% and the residual activity [6] was 43%. The residual activity [7] was 89%, the residual activity [8] was 95% and the residual activity [9] was 74%. For the same compound, the residual activity [10] was 78%, the residual activity [11] was 100% and the residual activity [12] was 59%. It also gave a residual activity [13] of 100%, a residual activity [14] of 84% and a residual activity [15] of 90%. It also gave a residual activity [16] of 100%, a residual activity [17] of 83% and a residual activity [18] of 75%. It also gave a residual activity [19] of 98%, a residual activity [20] of 79% and a residual activity [21] of 95%. The residual activity [22] was 79%, the residual activity [23] was 100% and the residual activity [24] was 58%. It also gave a residual activity [25] of 61%, a residual activity [26] of 64% and a residual activity [27] of 79%. For the same compound, the residual activity [28] was 100%, the residual activity [29] was 96% and the residual activity [30] was 68%. The residual activity [31] was 88%, the residual activity [32] was 81% and the residual activity [33] was 100%. The residual activity [34] was 92%, the residual activity [35] was 87% and the residual activity [36] was 70%. The residual activity [37] was 92%, the residual activity [38] was 79% and the residual activity [39] was 71%. For the same compound, the residual activity [40] was 99%, the residual activity [41] was 100% and the residual activity [42] was 90%. It also gave a residual activity [43] of 99%, an inhibition [44] of 21.1% and an inhibition [45] of 21.2%. It also gave an inhibition [46] of -5.77%.

`NS(=O)(=O)c1cc(NC(=O)Cc2ccccc2)ccc1Oc1cccc(Cl)c1` [BAY-1797] showed a residual activity [1] of 75%, a residual activity [2] of 58% and a residual activity [3] of 100%. The residual activity [4] was 73%, the residual activity [5] was 91% and the residual activity [6] was 100%. The residual activity [7] was 91%, the residual activity [8] was 74% and the residual activity [9] was 61%. For the same compound, the residual activity [10] was 92%, the residual activity [11] was 81% and the residual activity [12] was 67%. For the same compound, the residual activity [13] was 100%, the residual activity [14] was 74% and the residual activity [15] was 89%. It also gave a residual activity [16] of 95%, a residual activity [17] of 94% and a residual activity [18] of 84%. The residual activity [19] was 74%, the residual activity [20] was 85% and the residual activity [21] was 83%. For the same compound, the residual activity [22] was 62%, the residual activity [23] was 100% and the residual activity [24] was 100%. For the same compound, the residual activity [25] was 91%, the residual activity [26] was 96% and the residual activity [27] was 81%. It also gave a residual activity [28] of 85%, a residual activity [29] of 99% and a residual activity [30] of 100%. For the same compound, the residual activity [31] was 100%, the residual activity [32] was 80% and the residual activity [33] was 95%. The residual activity [34] was 73%, the residual activity [35] was 85% and the residual activity [36] was 100%. It also gave a residual activity [37] of 72%, a residual activity [38] of 66% and a residual activity [39] of 62%. The residual activity [40] was 100%, the residual activity [41] was 74% and the residual activity [42] was 100%. The residual activity [43] was 100%, the inhibition [44] was 30.2% and the inhibition [45] was 20.3%. It also gave an inhibition [46] of 46.3%.
